The structures appear in SMILES notation.

Data on 26 compounds can be found in US20100029620A1, “SUBSTITUTED TRIAZOLINE, TETRAZOLONE AND IMIDAZOLONE DERIVATIVES FOR USE AS A MEDICINE” (JANSSEN PHARMACEUTICA N.V., priority 2004, published 2010).

The target of assay [1] is T1, human adrenergic-α2C receptor (Homo sapiens, UniProt P18825).
T1 construct: expressed in transfected cells; membrane preparation
T1 sequence (P18825 1-462): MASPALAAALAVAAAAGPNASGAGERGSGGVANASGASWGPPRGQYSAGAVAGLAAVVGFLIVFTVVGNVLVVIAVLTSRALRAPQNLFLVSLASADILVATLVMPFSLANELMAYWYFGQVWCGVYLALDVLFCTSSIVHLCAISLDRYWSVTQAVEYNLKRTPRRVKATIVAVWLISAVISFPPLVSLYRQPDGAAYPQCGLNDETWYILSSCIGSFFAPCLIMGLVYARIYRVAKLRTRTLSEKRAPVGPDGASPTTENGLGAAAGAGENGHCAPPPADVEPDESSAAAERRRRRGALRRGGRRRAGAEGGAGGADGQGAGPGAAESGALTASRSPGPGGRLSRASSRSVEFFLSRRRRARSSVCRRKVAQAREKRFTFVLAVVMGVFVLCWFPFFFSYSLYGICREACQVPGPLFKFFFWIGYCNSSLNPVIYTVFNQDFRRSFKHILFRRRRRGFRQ
Nature of the assay: Radioligand binding experiment for α2C-adrenoceptor ([3H]-raulwolscine competition, CHO cell membranes). Particulars: [3H]raulwolscine 1 nM, membranes of CHO cells transfected with human α2C receptor; read-out: pIC50 α2C (converted). How it is done: (§1) The interaction of the compounds of Formula (I) with α2C-adrenoceptor receptors was assessed in in vitro radioligand binding experiments. In general, a low concentration of a radioligand with a high binding affinity for a particular receptor or transporter is incubated with a sample of a tissue preparation enriched in a particular receptor or transporter or with a preparation of cells expressing cloned human receptors in a buffered medium. During the incubation, the radioligand binds to the receptor or transporter. When equilibrium of binding is reached, the receptor bound radioactivity is separated from the non-bound radioactivity, and the receptor- or transporter-bound activity is counted. The interaction of the test compounds with the receptor is assessed in competition binding experiments. Various concentrations of the test compound are added to the incubation mixture containing the receptor- or transporter preparation and the radioligand. The test compound in proportion to its binding affinity and its concentration inhibits binding of the radioligand. The radioligand used for […] receptor binding was [^3H]-raulwolscine.
(§2) CHO cells, stabile transfected with human adrenergic-α2A-, -α2B or α2C receptor cDNA, were cultured in Dulbecco's Modified Eagle's Medium (DMEM)/Nutrient mixture Ham's F12 (ratio 1:1)(Gibco, Gent-Belgium) supplemented with 10% heat inactivated fetal calf serum (Life Technologies, Merelbeke-Belgium) and antibiotics (100 IU/ml penicillin G, 100 μg/ml streptomycin sulphate, 110 μg/ml pyruvic acid and 100 μg/ml L-glutamine). One day before collection, cells were induced with 5 mM sodiumbutyrate. Upon 80-90% of confluence, cells were scraped in phosphate buffered saline without Ca^2+ and Mg^2+ and collected by centrifugation at 1500×g for 10 min. The cells were homogenised in Tris-HCl 50 mM using an Ultraturrax homogenizer and centrifuged for 10 min at 23,500×g. The pellet was washed once by resuspension and rehomogenization and the final pellet was resuspended in Tris-HCl, divided in 1 ml aliquots and stored at −70° C.
(§3) Membranes were thawed and re-homogenized in incubation buffer (glycylglycine 25 mM, pH 8.0). In a total volume of 500 μl, 2-10 μg protein was incubated with [^3H]raulwolscine (NET-722) (New England Nuclear, USA) (1 nM final concentration) with or without competitor for 60 min at 25° C. followed by rapid filtration over GF/B filter using a Filtermate196 harvester (Packard, Meriden, Conn.). Filters were rinsed extensively with ice-cold rinsing buffer (Tris-HCl 50 mM pH 7.4). Filter-bound radioactivity was determined by scintillation counting in a Topcount (Packard, Meriden, CT) and results were expressed as counts per minute (cpm). Non-specific binding was determined in the presence of 1 μM oxymetazoline for hα2A- and hα2B receptors and 1 μM spiroxatrine for hα2C receptors.
(§4) Data from assays in the presence of compound were calculated as a percentage of total binding measured in the absence of test compound. Inhibition curves, plotting percent of total binding versus the log value of the concentration of the test compound, were automatically generated, and sigmoidal inhibition curves were fitted using non-linear regression. The pIC50 values of test compounds were derived from individual curves.

The target of assay [2] is T2, human adrenergic-α2A receptor (Homo sapiens, UniProt P08913).
T2 construct: expressed in transfected cells; membrane preparation
T2 sequence (P08913 1-465): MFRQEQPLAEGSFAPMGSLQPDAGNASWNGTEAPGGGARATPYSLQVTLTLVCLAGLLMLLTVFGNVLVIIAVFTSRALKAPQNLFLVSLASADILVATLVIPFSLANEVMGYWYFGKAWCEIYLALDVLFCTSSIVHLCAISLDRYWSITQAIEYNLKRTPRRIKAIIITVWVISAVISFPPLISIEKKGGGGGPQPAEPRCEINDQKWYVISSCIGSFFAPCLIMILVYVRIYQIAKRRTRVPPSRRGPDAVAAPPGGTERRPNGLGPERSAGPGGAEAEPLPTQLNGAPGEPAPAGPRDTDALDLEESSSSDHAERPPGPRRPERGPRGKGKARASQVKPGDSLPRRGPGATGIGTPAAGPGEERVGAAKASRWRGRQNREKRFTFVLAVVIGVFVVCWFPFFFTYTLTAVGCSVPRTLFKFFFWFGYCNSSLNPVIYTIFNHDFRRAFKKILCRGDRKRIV
Nature of the assay: Radioligand binding experiment for α2A-adrenoceptor ([3H]-raulwolscine competition, CHO cell membranes). The note with it: [3H]raulwolscine 1 nM, membranes of CHO cells transfected with human α2A receptor; read-out: pIC50 α2A (converted). How it is done:
as §1, §2, §3, §4

Assay [3] concerns the target T3, human adrenergic-α2B receptor (Homo sapiens, UniProt P18089).
T3 construct: expressed in transfected cells; membrane preparation
T3 sequence (P18089 1-450): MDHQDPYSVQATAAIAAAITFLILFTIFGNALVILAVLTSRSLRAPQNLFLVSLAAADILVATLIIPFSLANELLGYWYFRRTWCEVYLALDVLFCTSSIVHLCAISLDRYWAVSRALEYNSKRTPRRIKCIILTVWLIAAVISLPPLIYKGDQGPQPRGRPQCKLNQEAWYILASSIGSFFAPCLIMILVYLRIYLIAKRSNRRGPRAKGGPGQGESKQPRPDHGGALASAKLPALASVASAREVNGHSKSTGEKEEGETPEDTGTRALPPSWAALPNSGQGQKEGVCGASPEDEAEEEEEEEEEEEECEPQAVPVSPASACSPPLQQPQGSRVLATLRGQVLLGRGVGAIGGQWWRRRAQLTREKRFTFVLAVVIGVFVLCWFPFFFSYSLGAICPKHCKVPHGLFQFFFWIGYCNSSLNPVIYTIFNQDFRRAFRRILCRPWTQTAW
Nature of the assay: Radioligand binding experiment for α2B-adrenoceptor ([3H]-raulwolscine competition, CHO cell membranes). The note with it: [3H]raulwolscine 1 nM, membranes of CHO cells transfected with human α2B receptor; read-out: pIC50 α2B (converted). How it is done:
as §1, §2, §3, §4

Take `C/C(=C\c1ccccc1)CN1CCC(n2cnn(-c3ccc(NCCN(C)C)cc3)c2=O)CC1` [compound 31]: the IC50 in assay [1] is 12.6 nM; in assay [2], 50.1 nM; in assay [3], 25.1 nM.
The matching figures for `C/C(=C\c1ccccc1)CN1CCC(n2cnn(Cc3ccc(CN)cc3)c2=O)CC1` [compound 32]: 12.6 nM, 126 nM and 50.1 nM.
As for `C/C(=C\c1ccccc1)CN1CCC(n2cnn(-c3ccc(CN)cc3)c2=O)CC1` [compound 33], the IC50 is 15.8 nM in assay [1], 15.8 nM in assay [2] and 63.1 nM in assay [3].
On to `C/C(=C\c1ccccc1)CN1CCC(n2ncn(-c3ccc(CN)cc3)c2=O)CC1` [compound 34], for which the figures for the IC50 in assay [1], in assay [2] and in assay [3] were 10 nM, 39.8 nM and 50.1 nM, respectively.
Consider `NCc1ccc(-n2cnn(C3CCN(CCOc4ccccc4)CC3)c2=O)cc1` [compound 36], for which the IC50 in assay [1] was 12.6 nM; in assay [2], 39.8 nM; in assay [3] it was 79.4 nM.
Turning to `NCc1ccc(Cn2cnn(C3CCN(CCOc4ccccc4)CC3)c2=O)cc1` [compound 37], the IC50 in assay [1] was 3.98 nM; in assay [2], 39.8 nM; in assay [3] it was 25.1 nM.
The matching figures for `CN(C)CCNc1ccc(-n2cnn(CC3CCN(CCOc4ccccc4)CC3)c2=O)cc1` [compound 38]: 1.58 nM, 25.1 nM and 3.98 nM.
Regarding `C/C(=C\c1ccccc1)CN1CCC(Cn2ncn(-c3ccc(NCCN(C)C)cc3)c2=O)CC1` [compound 39], the IC50 is 10 nM in assay [1], 63.1 nM in assay [2] and 7.94 nM in assay [3].
The matching figures for `CN(C)CCNc1ccc(-n2cnn(CCC3CCN(CCOc4ccccc4)CC3)c2=O)cc1` [compound 40]: 0.794 nM, 3.98 nM and 0.631 nM.
The matching figures for `C/C(=C\c1ccccc1)CN1CCC(CCn2ncn(-c3ccc(NCCN(C)C)cc3)c2=O)CC1` [compound 41]: 1.58 nM, 6.31 nM and 1.26 nM.
The matching figures for `CN(CCNc1ccc(-n2cnn(CC3CCN(CCOc4ccccc4)CC3)c2=O)cc1)CC1CCCCC1` [compound 42]: 1 nM, 25.1 nM and 7.94 nM.
Take `CN(CCNc1ccc(-n2cnn(CC3CCN(CCOc4ccccc4)CC3)c2=O)cc1)Cc1ccccc1` [compound 43]: the IC50 was 1.58 nM in assay [1], 25.1 nM in assay [2] and 6.31 nM in assay [3].
In the case of `O=c1n(CCNCCOc2ccccc2)cnn1CCN1CCCCC1` [compound 44], the IC50 is 10 nM in assay [1], 126 nM in assay [2] and 3980 nM in assay [3].
The matching figures for `O=c1n(CCNCCOc2ccccc2)cnn1-c1ccc(CN2CCOCC2)cc1` [compound 45]: 20 nM, 316 nM and 200 nM.
For `CN(Cc1ccccc1)C(=O)Cn1cnn(CC2CCN(CCOc3ccccc3)CC2)c1=O` [compound 46], the IC50 in assay [1] is 6.31 nM; in assay [2], 126 nM; in assay [3] it was 158 nM.
Turning to `O=C(Cn1cnn(CC2CCN(CCOc3ccccc3)CC2)c1=O)Nc1ccc(F)cc1` [compound 47], the IC50 is 3.98 nM in assay [1], 79.4 nM in assay [2] and 39.8 nM in assay [3].
Consider `O=c1n(-c2ccc(NCc3ccc(F)cc3)cc2)cnn1CC1CCN(CCOc2ccccc2)CC1` [compound 48], for which the values for the IC50 in assay [1], in assay [2] and in assay [3] were 3.16 nM, 200 nM and 25.1 nM, respectively.
As for `CN1CCN(CCCNc2ccc(-n3cnn(CC4CCN(CCOc5ccccc5)CC4)c3=O)cc2)CC1` [compound 49], the IC50 is 3.98 nM in assay [1], 63.1 nM in assay [2] and 6.31 nM in assay [3].
As to `O=c1n(-c2ccc(NCCN3CCOCC3)cc2)cnn1CC1CCN(CCOc2ccccc2)CC1` [compound 50], the IC50 in assay [1] was 12.6 nM; in assay [2], 251 nM; in assay [3], 15.8 nM.
The matching figures for `CN1CCN(c2ccc(-n3cnn(CC4CCN(CCOc5ccccc5)CC4)c3=O)cc2)CC1` [compound 51]: 7.94 nM, 158 nM and 7.94 nM.
On to `CC(C)N1CCN(c2ccc(-n3cnn(CC4CCN(CCOc5ccccc5)CC4)c3=O)cc2)CC1` [compound 53], for which the IC50 in assay [1] was 5.01 nM; in assay [2], 100 nM; in assay [3], 3.98 nM.
The matching figures for `O=c1n(-c2ccc(N3CCN(Cc4ccccc4)CC3)cc2)cnn1CC1CCN(CCOc2ccccc2)CC1` [compound 54]: 15.8 nM, 158 nM and 31.6 nM.
The matching figures for `COc1ccccc1C1CCN(C(C)C(C)n2ncn(-c3ccc(N4CCN(c5ccc(O)cc5)CC4)cc3)c2=O)C1` (stereo not drawn) [compound 55]: 15.8 nM, 1260 nM and 50.1 nM.
The matching figures for `CN1CCCN(c2ccc(-n3cnn(CC4CCN(CCOc5ccccc5)CC4)c3=O)cc2)CC1` [compound 60]: 2 nM, 39.8 nM and 5.01 nM.
As to `CN1CCCN(Cc2ccc(-n3cnn(CC4CCN(CCOc5ccccc5)CC4)c3=O)cc2)CC1` [compound 61], the figures for the IC50 in assay [1], in assay [2] and in assay [3] were 1.26 nM, 63.1 nM and 10 nM, respectively.
`O=c1n(-c2ccc(CN3CCCC3)cc2)cnn1CC1CCN(CCOc2ccccc2)CC1` [compound 62]: the IC50 in assay [1] is 0.501 nM; in assay [2], 39.8 nM; in assay [3] it was 10 nM.
